# System: Phospholipidosis
# Assay: Literature-mined public compounds from Lowe et al phospholipidosis modelling dataset
row,Compound,Phospholipidosis
1,CCN(CC)CCCC(C)Nc1c2ccc(Cl)cc2nc2ccc(OC)cc12 (centres undefined) [QUINACRINE],Positive
2,OCCOCCN1CCN(C(c2ccccc2)c2ccc(Cl)cc2)CC1 (centres undefined) [HYDROXYZINE],Positive
3,CNCCC=C1c2ccccc2CCc2ccccc21 [NORTRIPTYLINE],Positive
4,CC1=C(CC(=O)O)c2cc(F)ccc2/C1=C\c1ccc([S+](C)[O-])cc1 (centres undefined),Negative
5,CCN(CC)CCOC(=O)c1ccc(N)cc1 [PROCAINE],Negative
6,CN(C)CCC=C1c2ccccc2CCc2c(Cl)cccc21,Positive
7,C=C[C@H]1C[N@@]2CC[C@H]1C[C@@H]2[C@@H](O)c1ccnc2ccc(OC)cc12 [QUINIDINE],Positive
8,CN/C(=N/CCSCc1nc[nH]c1C)NC#N [CIMETIDINE],Negative
9,NC(=O)N1c2ccccc2C=Cc2ccccc21 [CARBAMAZEPINE],Negative
10,CN(Cc1cc(Br)cc(Br)c1N)C1CCCCC1 [BROMHEXINE],Positive
11,C=CC1=C(C)/C(=C/c2[nH]c(Cc3[nH]c(/C=C4\NC(=O)C(C)=C4C=C)c(C)c3CCC(=O)O)c(CCC(=O)O)c2C)NC1=O [BILIRUBIN],Positive
12,COCCCC/C(=N\OCCN)c1ccc(C(F)(F)F)cc1 [FLUVOXAMINE],Positive
13,[N-]=[N+]=CC(=O)OC[C@H](N)C(=O)O [AZASERINE],Negative
14,COc1cccc2c1C(=O)c1c(O)c3c(c(O)c1C2=O)C[C@@](O)(C(=O)CO)C[C@@H]3O[C@H]1C[C@H](N)[C@H](O)[C@H](C)O1 [DOXORUBICIN],Negative
15,C#C[C@]1(O)CC[C@H]2[C@@H]3CCc4cc(O)ccc4[C@H]3CC[C@@]21C [ETHINYL ESTRADIOL],Negative
16,N=C(N)c1ccc(/C=C/c2ccc(C(=N)N)cc2)cc1 [STILBAMIDINE],Positive
17,CN(C)C/C=C(/c1ccc(Br)cc1)c1cccnc1 [ZIMELDINE],Positive
18,CN(C)CCN(Cc1cccs1)c1ccccn1,Negative
19,CCOC(=O)NC(C)(C)Cc1ccc(Cl)cc1 [CLOFOREX],Negative
20,CCC(=O)C(CC(C)N(C)C)(c1ccccc1)c1ccccc1 (centres undefined) [METHADONE],Negative
21,CN1C(=O)CN=C(c2ccccc2)c2cc(Cl)ccc21 [DIAZEPAM],Negative
22,Cc1cn([C@H]2C[C@H](N=[N+]=[N-])[C@@H](CO)O2)c(=O)[nH]c1=O [ZIDOVUDINE],Negative
23,O=C(O)Cc1ccccc1Nc1c(Cl)cccc1Cl [DICLOFENAC],Negative
24,N[C@H]1C(O)O[C@H](CO)[C@@H](O)[C@@H]1O (some centres undefined) [GLUCOSAMINE],Negative
25,CN(C)CCCN1c2ccccc2CCc2ccccc21 [IMIPRAMINE],Positive
26,C[C@H]1c2cccc(O)c2C(=O)C2=C(O)[C@]3(O)C(=O)C(C(N)=O)=C(O)[C@@H](N(C)C)[C@@H]3[C@@H](O)[C@@H]21.O [DOXYCYCLINE],Negative
27,O=C(O)c1cc(-c2ccc(F)cc2F)ccc1O [DIFLUNISAL],Negative

row,Compound,Phospholipidosis
1,CCN(CC)CCOc1ccc(C(O)(Cc2ccc(Cl)cc2)c2ccc(C)cc2)cc1 (centres undefined) [TRIPARANOL],Positive
2,CN1CCN(Cc2nc3cccc4c3c([n+]2[O-])-c2ccccc2-4)CC1,Positive
3,CCCN[C@@H]1[C@H](C)[C@@H](O)[C@](C)(O)[C@@H](CC)OC(=O)[C@H](C)[C@@H](O[C@H]2C[C@@](C)(OC)[C@@H](O)[C@H](C)O2)[C@H](C)[C@@H](O[C@@H]2O[C@H](C)C[C@H](N(C)C)[C@H]2O)[C@](C)(O)C[C@H]1C,Positive
4,CC(C)(N)Cc1ccc(Cl)cc1 [CHLORPHENTERMINE],Positive
5,CCCC[C@@H]1CC(=O)[C@]2(O)O[C@@H]3[C@@H](NC)[C@@H](O)[C@@H](NC)[C@H](O)[C@H]3O[C@@H]2O1.O=S(=O)(O)O,Positive
6,CN(C)[C@@H]1C(O)=C(C(N)=O)C(=O)[C@@]2(O)C(O)=C3C(=O)c4c(O)ccc(Cl)c4[C@@](C)(O)[C@H]3C[C@@H]12 [CHLORTETRACYCLINE],Negative
7,CCN(CC)CC(=O)Nc1c(C)cccc1C [LIDOCAINE],Positive
8,NC(N)=Nc1nc(CSCCC(N)=NS(N)(=O)=O)cs1 [FAMOTIDINE],Negative
9,CNCCCN1c2ccccc2CCc2ccccc21 [DESIPRAMINE],Positive
10,O=C1CC2(CCCC2)CC(=O)N1CCCCN1CCN(c2ncccn2)CC1 [BUSPIRONE],Negative
11,CN(C)CCC=C1c2ccccc2C=Cc2c(Cl)cccc21,Positive
12,CCCC[C@@H]1CC(=O)[C@]2(O)O[C@@H]3[C@@H](NC)[C@@H](O)[C@@H](NC)[C@H](O)[C@H]3O[C@@H]2O1 [TROSPECTOMYCIN],Positive
13,NC(=O)OCC(COC(N)=O)c1ccccc1 [FELBAMATE],Negative
14,NS(=O)(=O)c1cc(C(=O)O)c(NCc2ccco2)cc1Cl [FUROSEMIDE],Negative
15,CN(C)[C@@H]1C(O)=C(C(N)=O)C(=O)[C@@]2(O)C(O)=C3C(=O)c4c(O)cccc4[C@@](C)(O)[C@H]3C[C@@H]12 [TETRACYCLINE],Negative
16,Cc1ccc2cc3c(ccc4ccccc43)c3c2c1CC3 [3-METHYLCHOLANTHRENE],Negative
17,NN [HYDRAZINE],Negative
18,CN1C(C(=O)Nc2ccccn2)=C(O)c2ccccc2S1(=O)=O [PIROXICAM],Negative
19,CCN(CC)C(=O)[C@@H]1C=C2c3cccc4[nH]cc(c34)C[C@H]2N(C)C1 [LYSERGIDE],Positive
20,C[n+]1ccc(-c2cc[n+](C)cc2)cc1,Positive
21,NCC[C@H](O)C(=O)N[C@@H]1C[C@H](N)[C@@H](O[C@H]2O[C@H](CN)[C@@H](O)[C@H](O)[C@H]2O)[C@H](O)[C@H]1O[C@H]1O[C@H](CO)[C@@H](O)[C@H](N)[C@H]1O [AMIKACIN],Positive
22,CC[C@H]1OC(=O)[C@H](C)[C@@H](O[C@H]2C[C@@](C)(OC)[C@@H](O)[C@H](C)O2)[C@H](C)[C@@H](O[C@@H]2O[C@H](C)C[C@H](N(C)C)[C@H]2O)[C@](C)(OC)C[C@@H](C)C(=O)[C@H](C)[C@@H](O)[C@]1(C)O [CLARITHROMYCIN],Negative
23,CCCNCCc1ccc(NS(=O)(=O)c2ccc(OC(F)(F)F)cc2)cc1,Positive
24,NC[C@H]1Cc2ccc(F)cc2[C@@H](c2ccccc2)O1,Positive
25,O=C(NCC1CCCCN1)c1cc(OCC(F)(F)F)ccc1OCC(F)(F)F (centres undefined) [FLECAINIDE],Negative
26,CCN1CC(CCN2CCOCC2)C(c2ccccc2)(c2ccccc2)C1=O (centres undefined) [DOXAPRAM],Negative
27,CC(Cc1ccccc1)NCCC(c1ccccc1)c1ccccc1 (centres undefined) [PRENYLAMINE],Positive

row,Compound,Phospholipidosis
1,CCN(CC)Cc1cc(Nc2ccnc3cc(Cl)ccc23)ccc1O.Cl,Positive
2,CC(c1cc2ccccc2s1)N(O)C(N)=O (centres undefined) [ZILEUTON],Negative
3,COc1cc([C@@H]2c3cc4c(cc3[C@@H](O[C@@H]3O[C@@H]5CO[C@@H](C)O[C@H]5[C@H](O)[C@H]3O)[C@H]3COC(=O)[C@H]23)OCO4)cc(OC)c1O [ETOPOSIDE],Negative
4,CC(CN(C)C)CN1c2ccccc2CCc2ccccc21 (centres undefined) [TRIMIPRAMINE],Positive
5,CC1(C)C(=O)NC(=O)N1CC(N)COc1ccc(-c2ccc(OC(F)(F)F)cc2)cc1 (centres undefined),Positive
6,CC12CC3CC(C)(C1)CC(N)(C3)C2 [MEMANTINE],Positive
7,CNS(=O)(=O)Cc1ccc2[nH]cc(CCN(C)C)c2c1,Negative
8,Nc1nc(NC2CC2)c2ncn([C@H]3C=C[C@@H](CO)C3)c2n1 [ABACAVIR],Negative
9,C[C@H]1COc2c(N3CCN(C)CC3)c(F)cc3c(=O)c(C(=O)O)cn1c23.C[C@H]1COc2c(N3CCN(C)CC3)c(F)cc3c(=O)c(C(=O)O)cn1c23.O [LEVOFLOXACIN],Negative
10,CC(C)C(=O)Nc1ccc([N+](=O)[O-])c(C(F)(F)F)c1 [FLUTAMIDE],Negative
11,CN(C)CCCN1c2ccccc2Sc2ccc(Cl)cc21 [CHLORPROMAZINE],Positive
12,CC(C)N(CCC(CCN1CCCCC1)(C(N)=O)c1ccccc1Cl)C(C)C (centres undefined) [DISOBUTAMIDE],Positive
13,CC1(C)OCC(C(CS(=O)(=O)c2ccc(Oc3cccc(OC(F)(F)F)c3)cc2)NC=O)O1 (centres undefined),Negative
14,CN[C@@H]1[C@@H](O)[C@@H](O[C@@H]2[C@@H](O)[C@H](O[C@H]3O[C@H]([C@@H](C)NC)CC[C@H]3N)[C@@H](N)C[C@H]2N)OC[C@]1(C)O [GENTAMICIN C1],Positive
15,S=C=Nc1cccc2ccccc12 [1-NAPHTHYLISOTHIOCYANATE],Negative
16,Cn1c(=O)c2c(ncn2C)n(C)c1=O [CAFFEINE],Negative
17,CC[C@]1(O)C[C@@H]2CN(CCc3c([nH]c4ccccc34)[C@@](C(=O)OC)(c3cc4c(cc3OC)N(C)[C@H]3[C@@](O)(C(=O)OC)[C@H](OC(C)=O)[C@]5(CC)C=CCN6CC[C@]43[C@@H]65)C2)C1 [VINBLASTINE],Negative
18,N#Cc1ccc(NC(=O)N=C(N)N)cc1Cl [CLOGUANAMIL],Positive
19,CN(C)C(=N)N=C(N)N [METFORMIN],Negative
20,CN(C)[C@@H]1C(O)=C(C(=O)NCN2CCCC2)C(=O)[C@@]2(O)C(O)=C3C(=O)c4c(O)cccc4[C@@](C)(O)[C@H]3C[C@@H]12 [ROLITETRACYCLINE],Negative
21,CN(C)CCC=C1c2ccccc2CCc2ccccc21 [AMITRIPTYLINE],Positive
22,CN1[C@@H]2CC[C@H]1C[C@@H](OC(=O)C(CO)c1ccccc1)C2 (some centres undefined) [ATROPINE],Positive
23,CCOC(=O)N1CCC(=C2c3ccc(Cl)cc3CCc3cccnc32)CC1 [LORATADINE],Positive
24,CC(=O)Nc1ccc(O)cc1 [ACETAMINOPHEN],Negative
25,Cc1cc(NS(=O)(=O)c2ccc(N)cc2)no1 [SULFAMETHOXAZOLE],Negative

# From ChEMBL document CHEMBL1697681, “Predicting phospholipidosis using machine learning” (Mol Pharm, 2010)
